According to patent US11766411B2, “Use of cannabinoids in the treatment of epilepsy” (GW Research Limited, priority 2014, dated 2023):

Tests used:
patients with FIRES = assay: Expanded access program, febrile infection related epilepsy syndrome (FIRES) patients; assay type: in vivo, human; design: Change from Baseline: unit not given here; conditions: total seizures
Protocol: Three patients with FIRES, with an age range of from 4 to 15 years, were treated with CBD under an expanded access program as described previously in Example 1.
Safety laboratory studies, physical/neurological exams, 24 hour video/EEG and seizure types and frequencies were assessed at baseline and one month after starting CBD.
A highly purified extract of CBD as an oral solution in sesame oil was used at a concentration of 25 mg/mL.
Treatment was initiated at a dose of 10 mg/kg/day given in two divided doses, increasing by 5 mg/kg/day every 3 days.
Following seizure improvement an average of 2 AEDs were weaned.

[1] = test system: adult patients with generalized epilepsy; conditions: eight adult patients with generalized epilepsy; cited from earlier work
adult patients = conditions: 200 mg/day of pure CBD, four adult patients; cited from earlier work
[2] = test system: institutionalized adult patients; conditions: 200 mg/day of pure CBD, twelve institutionalized adult patients, open label; cited from earlier work
mice = conditions: after administration of pro-convulsant drugs or an electric current; cited from earlier work

C=C(C)[C@@H]1CCC(C)=C[C@H]1c1c(O)cc(CCCCC)cc1O [CBD, Cannabidiol]
Frequency (per month) (patients with FIRES; Patient 1, Wk 12): 0.0 per month
Responder (>=50% Reduction) (patients with FIRES; Patient 1, Wk 12): Yes
Responder (>=70% Reduction) (patients with FIRES; Patient 1, Wk 12): Yes
Responder (>=90% Reduction) (patients with FIRES; Patient 1, Wk 12): Yes
Seizure Free (patients with FIRES; Patient 1, Wk 12): Yes
% Change from Baseline (patients with FIRES; Patient 1, Wk 16): −100.0%
Change from Baseline (patients with FIRES; Patient 1, Wk 16): −4.0
Frequency (per month) (patients with FIRES; Patient 1, Wk 16): 0.0 per month
Responder (>=50% Reduction) (patients with FIRES; Patient 1, Wk 16): Yes
Responder (>=70% Reduction) (patients with FIRES; Patient 1, Wk 16): Yes
Responder (>=90% Reduction) (patients with FIRES; Patient 1, Wk 16): Yes
Seizure Free (patients with FIRES; Patient 1, Wk 16): Yes
% Change from Baseline (patients with FIRES; Patient 1, Wk 24): −92.0%
Change from Baseline (patients with FIRES; Patient 1, Wk 24): −3.7
Frequency (per month) (patients with FIRES; Patient 1, Wk 24): 0.3 per month
Responder (>=50% Reduction) (patients with FIRES; Patient 1, Wk 24): Yes
Responder (>=70% Reduction) (patients with FIRES; Patient 1, Wk 24): Yes
Responder (>=90% Reduction) (patients with FIRES; Patient 1, Wk 24): Yes
Seizure Free (patients with FIRES; Patient 1, Wk 24): No
% Change from Baseline (patients with FIRES; Patient 2, Wk 2): −88.6%
Change from Baseline (patients with FIRES; Patient 2, Wk 2): −6.2
Frequency (per month) (patients with FIRES; Patient 2, Wk 2): 0.8 per month
Responder (>=50% Reduction) (patients with FIRES; Patient 2, Wk 2): Yes
Responder (>=70% Reduction) (patients with FIRES; Patient 2, Wk 2): Yes
Responder (>=90% Reduction) (patients with FIRES; Patient 2, Wk 2): No
Seizure Free (patients with FIRES; Patient 2, Wk 2): No
% Change from Baseline (patients with FIRES; Patient 2, Wk 4): −57.1%
Change from Baseline (patients with FIRES; Patient 2, Wk 4): −4.0
Frequency (per month) (patients with FIRES; Patient 2, Wk 4): 3.0 per month
Responder (>=50% Reduction) (patients with FIRES; Patient 2, Wk 4): Yes
Responder (>=70% Reduction) (patients with FIRES; Patient 2, Wk 4): No
Responder (>=90% Reduction) (patients with FIRES; Patient 2, Wk 4): No
Seizure Free (patients with FIRES; Patient 2, Wk 4): No
% Change from Baseline (patients with FIRES; Patient 2, Wk 8): 42.9%
Change from Baseline (patients with FIRES; Patient 2, Wk 8): 3.0
Frequency (per month) (patients with FIRES; Patient 2, Wk 8): 10.0 per month
Responder (>=50% Reduction) (patients with FIRES; Patient 2, Wk 8): No
Responder (>=70% Reduction) (patients with FIRES; Patient 2, Wk 8): No
Responder (>=90% Reduction) (patients with FIRES; Patient 2, Wk 8): No
Seizure Free (patients with FIRES; Patient 2, Wk 8): No
% Change from Baseline (patients with FIRES; Patient 2, Wk 12): 14.3%
Change from Baseline (patients with FIRES; Patient 2, Wk 12): 1.0
Frequency (per month) (patients with FIRES; Patient 2, Wk 12): 8.0 per month
Responder (>=50% Reduction) (patients with FIRES; Patient 2, Wk 12): No
Responder (>=70% Reduction) (patients with FIRES; Patient 2, Wk 12): No
Responder (>=90% Reduction) (patients with FIRES; Patient 2, Wk 12): No
Seizure Free (patients with FIRES; Patient 2, Wk 12): No
% Change from Baseline (patients with FIRES; Patient 2, Wk 16): −42.9%
Change from Baseline (patients with FIRES; Patient 2, Wk 16): −3.0
Frequency (per month) (patients with FIRES; Patient 2, Wk 16): 4.0 per month
Responder (>=50% Reduction) (patients with FIRES; Patient 2, Wk 16): No
Responder (>=70% Reduction) (patients with FIRES; Patient 2, Wk 16): No
Responder (>=90% Reduction) (patients with FIRES; Patient 2, Wk 16): No
Seizure Free (patients with FIRES; Patient 2, Wk 16): No
% Change from Baseline (patients with FIRES; Patient 3, Wk 4): −99.2%
Change from Baseline (patients with FIRES; Patient 3, Wk 4): −5552.8
Frequency (per month) (patients with FIRES; Patient 3, Wk 4): 47.2 per month
Responder (>=50% Reduction) (patients with FIRES; Patient 3, Wk 4): Yes
Responder (>=70% Reduction) (patients with FIRES; Patient 3, Wk 4): Yes
Responder (>=90% Reduction) (patients with FIRES; Patient 3, Wk 4): Yes
Seizure Free (patients with FIRES; Patient 3, Wk 4): No
% Change from Baseline (patients with FIRES; Patient 3, Wk 8): −99.8%
Change from Baseline (patients with FIRES; Patient 3, Wk 8): −5590.8
Frequency (per month) (patients with FIRES; Patient 3, Wk 8): 9.2 per month
Responder (>=50% Reduction) (patients with FIRES; Patient 3, Wk 8): Yes
Responder (>=70% Reduction) (patients with FIRES; Patient 3, Wk 8): Yes
Responder (>=90% Reduction) (patients with FIRES; Patient 3, Wk 8): Yes
Seizure Free (patients with FIRES; Patient 3, Wk 8): No
% Change from Baseline (patients with FIRES; Patient 3, Wk 12): −97.5%
Change from Baseline (patients with FIRES; Patient 3, Wk 12): −5458.4
Frequency (per month) (patients with FIRES; Patient 3, Wk 12): 141.6 per month
Responder (>=50% Reduction) (patients with FIRES; Patient 3, Wk 12): Yes
Responder (>=70% Reduction) (patients with FIRES; Patient 3, Wk 12): Yes
Responder (>=90% Reduction) (patients with FIRES; Patient 3, Wk 12): Yes
Seizure Free (patients with FIRES; Patient 3, Wk 12): No
% Change from Baseline (patients with FIRES; Patient 3, Wk 24): −90.3%
Change from Baseline (patients with FIRES; Patient 3, Wk 24): −5058.0
Frequency (per month) (patients with FIRES; Patient 3, Wk 24): 542.0 per month
Responder (>=50% Reduction) (patients with FIRES; Patient 3, Wk 24): Yes
Responder (>=70% Reduction) (patients with FIRES; Patient 3, Wk 24): Yes
Responder (>=90% Reduction) (patients with FIRES; Patient 3, Wk 24): Yes
Seizure Free (patients with FIRES; Patient 3, Wk 24): No
patients with a marked reduction of seizures [1]: 4
patients who became seizure free (adult patients): two
controlling seizures [2]: ineffective
prevention of seizures (mice): able to prevent seizures
